Counter-ions that a name gives are not always drawn.
Key:
[1] = Whole-cell antimicrobial activity assay, broth microdilution (CLSI M7-A7); format: cell-based; conditions: against a strain of at least one of the organisms listed; tested in at least one exemplified salt form; dilutions 0.016 to 16 mcg/mL; read-out: MIC (minimum inhibitory concentration)
Description: Whole-cell antimicrobial activity was determined by broth microdilution using the Clinical and Laboratory Standards Institute (CLSI) recommended procedure, Document M7-A7, “Methods for Dilution Susceptibility Tests for Bacteria that Grow Aerobically”. The compounds were tested in serial two-fold dilutions ranging from 0.016 to 16 mcg/mL.
The minimum inhibitory concentration (MIC) was determined as the lowest concentration of compound that inhibited visible growth. A mirror reader was used to assist in determining the MIC endpoint.
Compounds were evaluated against Gram-positive organisms, including Staphylococcus aureus, Streptococcus pneumoniae, Streptococcus pyogenes, Enterococcus faecalis and Enterococcus faecium.
In addition, compounds were evaluated against Gram-negative strains including Haemophilus influenzae, Moraxella catarrhalis, Escherichia coli, Pseudomonas aeruginosa, Proteus mirabilis, Enterobacter cloacae, Enterobacter aerogenes, Klebsiella pneumoniae and Stenotrophomonas maltophilia.

[2] = system: Mycobacterium tuberculosis H37Rv; experiment: Mycobacterium tuberculosis H37Rv Inhibition Assay; format: cell-based; conditions: ATCC 25618 / H37Rv, H37Rv strain (ATCC25618), Middlebrook 7H9+ADC, resazurin fluorescence readout
Description: Mycobacterium tuberculosis H37Rv Inhibition Assay
The measurement of the minimum inhibitory concentration (MIC) for each tested compound was performed in 96 wells flat-bottom, polystyrene microtiter plates. Ten two-fold drug dilutions in neat DMSO starting at 400 μM were performed. Five μl of these drug solutions were added to 95 μl of Middlebrook 7H9 medium. (Lines A-H, rows 1-10 of the plate layout). Isoniazid was used as a positive control, 8 two-fold dilution of Isoniazid starting at 160 μgml^−1 was prepared and 5 μl of this control curve was added to 95 μl of Middlebrook 7H9 (Difco catalogue Ref. 271310)+ADC medium (Becton Dickinson Catalogue Ref 211887). (Row 11, lines A-H). Five μl of neat DMSO were added to row 12 (growth and Blank controls).
The inoculum was standardised to approximately 1×10^7 cfu/ml and diluted 1 in 100 in Middlebrook 7H9+ADC medium and 0.025% Tween 80 (Sigma P4780), to produce the final inoculum of H37Rv strain (ATCC25618). One hundred μl of this inoculum was added to the entire plate but G-12 and H-12 wells (Blank controls). All plates were placed in a sealed box to prevent drying out of the peripheral wells and they were incubated at 37° C. without shaking for six days. […] Fluorescence was measured (Spectramax M5 Molecular Devices, Excitation 530 nm, Emission 590 nm) after 48 hours to determine the MIC value. […]

Structure (SMILES)	MIC [1] [µg/mL]	MIC [2] [µg/mL]
O=c1ccc2ncc(F)c3c2n1C[C@@]3(O)CN1CCC(NC/C=C/c2ccccn2)CC1 [Example 1, (4S)-3-Fluoro-4-hydroxy-4-[(4-{[(2E)-3-(2-pyridinyl)-2-propen-1-yl]amino}-1-piperidinyl)methyl]-4,5-dihydro-7H-pyrrolo[3,2,1-de]-1,5-naphthyridin-7-one dihydrochloride]	≤ 2	–
O=c1ccc2ncc(F)c3c2n1C[C@@]3(O)CN1CCC(NC/C=C/c2ccco2)CC1 [Example 2, (4S)-3-Fluoro-4-[(4-{[(2E)-3-(2-furanyl)-2-propen-1-yl]amino}-1-piperidinyl)methyl]-4-hydroxy-4,5-dihydro-7H-pyrrolo[3,2,1-de]-1,5-naphthyridin-7-one dihydrochloride]	≤ 2	≤ 5.1

— patent US20100137353A1, “TRICYCLIC COMPOUNDS AS ANTIBACTERIALS” (GLAXO GROUP LIMITED, priority 2007, published 2010)
